# Data from publication PMC10801775 (The Journal of Pharmacology and Experimental Therapeutics, 2024).
# Columns and labels:
# [1] = parameters: species or system Sprague-Dawley rats; details: rat, in vivo
# [2] = rat, in vivo
smiles,measurement,setting,value
"CCOP(=O)(OCC)Oc1ccc([N+](=O)[O-])cc1 [POX, O,O-diethyl-O-p-nitrophenylphosphate]",brain AUC as % of naïve,[1],> 80%
same,"heart AUC restored, % of naïve AUC level",[1],25%
same,liver AUC increase versus naïve,[1],4 fold
same,"lung AUC restored, % of naïve AUC level",[1],50%
same,mean brain region radioactivity higher than naïve rats,[1],up to 2 fold
same,RBC fraction relative to naïve and 60-minute studies,[2],about twice
same,"RBC fraction, % of total radioactivity",[2],20%
same,metabolite level in blood relative to naïve rats (or rats 60 minutes after POX),[2],5 fold
same,reduction of total percent radioactivity of plasma proteins,[2],~20%
